Patent US11040041B2, “Method of treating pulmonary arterial hypertension” (Cipla (UK) Limited, priority 2015, dated 2021)

Columns and labels:
[1] = test system: rats with monocrotaline induced pulmonary arterial hypertension; assay: Hemodynamic evaluation in anesthetized rats treated with monocrotaline to induce pulmonary arterial hypertension; format: in vivo, Sprague-Dawley rats; details: for RV/LV + S: Fulton's Index; for RV/LV + S / Body Weight / HR / HW/BW / Heart Wt / LV Wt / Lung Wt / MAP / Mean PAP / RV Wt / RV/BW / Systolic PAP: day 28 after monocrotaline, mean ± SEM
Procedure: The studies were conducted for Hemodynamic Evaluation of Paliperidone palmitate in Anesthetized Sprague Dawley Rats Treated with Monocrotaline to Induce Pulmonary Arterial Hypertension. Sildenafil was used as an internal control to compare the effects of Paliperidone palmitate.
Adult male Sprague-Dawley rats (287±4 g) were obtained from Charles River Laboratories (Raleigh, N.C.). Animals housed individually in a temperature/humidity controlled room with 12-hour light/dark cycles, had free access to water and food and were acclimated for one week prior to the study. Rats were randomly assigned (n=10 per group). Rats in groups 1 and 2 served as healthy controls; the remaining rats were injected subcutaneously on Day 0 with 60 mg/kg body weight monocrotaline, the toxic alkaloid of Crotalaria spectabilis, (dissolved in DMSO at a concentration of 60 mg/ml, Sigma Aldrich, St. Louis, Mo.). On days 1-21, the rats were dosed via oral gavage (2 ml/kg) with vehicle (PBS), or the test compound—Paliperidone palmitate. Rats were weighed daily, and the dosages of test compound adjusted appropriately.
Monocrotaline (MCT) is an 11-membered macrocyclic pyrrolizidine plant alkaloid. A single SQ injection into rats results in hepatic generation of toxic metabolite—MCT pyrrole. Phase II metabolism of MCT is through glutathione conjugation. Reactive metabolite is transported to lungs, injuring pulmonary vasculature.
The effects of sildenafil and Paliperidone palmitate were evaluated in rats with monocrotaline induced pulmonary arterial hypertension. Male Sprague-Dawley rats were orally administered vehicle, Paliperidone palmitate (1.25 or 3.75 mg/kg, once every day for 28 days starting on Day 1, or sildenafil (30 mg/kg, administered twice daily) (n=10 in each group). Rats received a single injection of monocrotaline (60 mg/kg, s.c.) on Study Day 1. On the twenty-eighth day following monocrotaline dosing, the rats were anesthetized with ketamine/xylazine for terminal monitoring of pulmonary and systemic arterial pressures along with heart rate.
The Table 1 gives the study design for the test article and vehicle administrations.

[2] = test system: rats with monocrotaline induced pulmonary arterial hypertension; assay: as above; format: in vivo, Sprague-Dawley rats; details: 3.25 mg/kg dosing (so in the source), after 28 days
[3] = Paliperidone palmitate 1.25 mg/kg oral once daily
[4] = Paliperidone palmitate 3.75 mg/kg oral once daily
[5] = after 28 days, monocrotaline rats
[6] = Sildenafil 60 mg/kg/day bid oral

CCCCCCCCCCCCCCCC(=O)OC1CCCn2c1nc(C)c(CCN1CCC(c3noc4cc(F)ccc34)CC1)c2=O (stereo not shown) [Paliperidone palmitate, Hexadecanoic acid 3-[2-[4-(6-fluoro-1,2-benzisoxazol-3-yl)piperidin-1-yl]ethyl]-2-methyl-4-oxo-6,7,8,9-tetrahydro-4H-pyri do[1,2-a]pyrimidin-9-yl ester]
reduction in systolic pulmonary arterial pressure compared to the vehicle group ([1]; 1.25 mg/kg dosing, after 28 days, monocrotaline rats): 25% | right ventricular hypertrophy (RV/LV+S, Fulton's Index) change compared to vehicle ([1]; 1.25 mg/kg, after 28 days, monocrotaline rats): −12% | right ventricular hypertrophy (RV/LV+S, Fulton's Index) change compared to vehicle ([1]; 3.75 mg/kg, after 28 days, monocrotaline rats): −7% | RV/LV + S [1, 3]: 0.52 ± 0.04 | RV/LV + S [1, 4]: 0.55 ± 0.06 | Body Weight [1, 3]: 0.33 ± 0.02 kg | HR [1, 3]: 253 ± 36 bpm | HW/BW [1, 3]: 3.94 ± 0.22 | Heart Wt [1, 3]: 1.28 ± 0.03 g | LV Wt [1, 3]: 0.77 ± 0.01 g | Lung Wt [1, 3]: 2.59 ± 0.13 g | MAP [1, 3]: 54 ± 9 mm Hg | Mean PAP [1, 3]: 34 ± 1 mm Hg | RV Wt [1, 3]: 0.39 ± 0.02 g | RV/BW [1, 3]: 1.22 ± 0.10 | Systolic PAP [1, 3]: 45 ± 3 mm Hg | Body Weight [1, 4]: 0.33 ± 0.02 kg | HR [1, 4]: 312 ± 12 bpm | HW/BW [1, 4]: 3.92 ± 0.21 | Heart Wt [1, 4]: 1.28 ± 0.06 g | LV Wt [1, 4]: 0.73 ± 0.03 g | Lung Wt [1, 4]: 2.23 ± 0.04 g | MAP [1, 4]: 68 ± 5 mm Hg | Mean PAP [1, 4]: 39 ± 3 mm Hg | RV Wt [1, 4]: 0.40 ± 0.03 g | RV/BW [1, 4]: 1.22 ± 0.12 | Systolic PAP [1, 4]: 48 ± 3 mm Hg | differences in heart rate compared to vehicle [1, 5]: No substantive differences | differences in mean arterial pressure compared to vehicle [1, 5]: No substantive differences | decrease in hypertrophy, RV (wt) corrected by body weight ([1]; at either dose (1.25 or 3.75 mg/kg), after 28 days, monocrotaline rats): 19% | development of PAH in the rat monocrotaline (MCT) model ([1]; daily oral doses, text says three weeks): prevent the development of PAH | reduction in systolic pulmonary arterial pressure compared to the vehicle group [2]: 20%

CCCc1nn(C)c2c(=O)[nH]c(-c3cc(S(=O)(=O)N4CCN(C)CC4)ccc3OCC)nc12 [Sildenafil]
RV/LV + S [1, 6]: 0.51 ± 0.03 | Body Weight [1, 6]: 0.32 ± 0.01 kg | HR [1, 6]: 278 ± 21 bpm | HW/BW [1, 6]: 3.89 ± 0.17 | Heart Wt [1, 6]: 1.24 ± 0.02 g | LV Wt [1, 6]: 0.74 ± 0.02 g | Lung Wt [1, 6]: 2.36 ± 0.13 g | MAP [1, 6]: 69 ± 5 mm Hg | Mean PAP [1, 6]: 38 ± 6 mm Hg | RV Wt [1, 6]: 0.38 ± 0.02 g | RV/BW [1, 6]: 1.19 ± 0.09 | Systolic PAP [1, 6]: 46 ± 7 mm Hg | differences in heart rate compared to vehicle [1, 5]: No substantive differences | differences in mean arterial pressure compared to vehicle [1, 5]: No substantive differences | decrease in hypertrophy, RV (wt) corrected by body weight ([1]; sildenafil (30 mg/kg twice daily), after 28 days, monocrotaline rats): 21% | right ventricular hypertrophy (RV/LV+S, Fulton's Index) change compared to vehicle ([1]; sildenafil cohort (30 mg/kg twice daily), after 28 days, monocrotaline rats): −14% | reduction of SPAP compared to the vehicle group ([1]; sildenafil group (30 mg/kg twice daily), after 28 days, monocrotaline rats): 23%
